Measurements reported in US11078160B2, “Ethynyl compounds, their preparation and their therapeutic use for the treatment of malaria” (SANOFI, priority 2017, dated 2021).
Structures can show the parent of a compound that is named as a salt. Where two headings read alike, the source gives them in different places.

Columns and labels:
Format in all cases: cell-based
[1] = tested on: strain NF54 of P. falciparum; assay: 3H-hypoxanthine incorporation growth inhibition assay, P. falciparum NF54
Procedure: The biological activity of compounds of formula (I) according to the invention has been tested on the basis of an IC50 evaluation against the strain NF54 of P. falciparum.
For Hypoxanthine assay, parasite cultures were grown in 100 mm petri-dishes in growth media having 5% haematocrit in tri-gas incubator (Cat #3131, Thermo Scientific Forma Series II Water Jacketed CO2 incubator, sold by Thermofisher) having controlled gas mixtures of 4% CO2 and 3% O2 at temperature 37° C.
Parasite growth and morphology was observed daily using thin smears at 100× (oil immersion) magnification following staining with Giemsa stain.
Parasites use hypoxanthine included in the growth media as a precursor in nucleic acid synthesis. Accordingly, by replacing hypoxanthine in the media by a radioactive hypoxanthine, such as ^3H-hypoxanthine as indicated here-under, the rate of DNA replication and growth rate of the parasites can be measured, in particular in the presence of the tested compounds of the invention.
The growth media used for the above-indicated parasites contains 1 L of RPMI-1640 (sold by Invitrogen), […] of Albumax II (sold by Invitrogen), 5 mg of Hypoxanthine (sold by Sigma), 25 mM Hepes (sold by Invitrogen) and 2.5 mg of Gentamycin (sold by Sigma).
The screening media used contains 1 L of RPMI-1640 (sold by Invitrogen), […] of Albumax II (sold by Invitrogen), 25 mM Hepes (sold by Invitrogen) and 2.5 mg of Gentamycin (sold by Sigma).
For this assay, the above described screening media was used, as well as 20 Ci/mmol of a radioactive hypoxanthine (the ligand ^3H-hypoxanthine (20 Ci/mmol, 1 mCi/mL) sold by the American Radiolabeled Chemicals (ARC) from St Louis, Mo.), some Top Seal A (sold by Perkin Elmer), 96 Well Cell Culture plates (CellStar® sold by Greiner Bio-One GmbH), MicroScint® 20 (sold by Perkin Elmer) and GFB plates (sold by Perkin Elmer).
On each 96 well plate, 3 compounds of formula (I) according to the invention as well as one standard compound (positive control) are each tested in 12 wells in duplicate.
Said standard compound is a mixture of Artesunate and Chloroquine, two well-known anti malaria compounds.
The maximum activity value of the parasites is determined as positive control by observing the parasites in the presence of erythrocytes, while the minimum activity value of the parasites is determined in a negative control by observing the erythrocytes in the absence of parasites.
The tested compounds of the invention were assayed at a final concentration of 10 μM.
In order to do so, stock solutions at a concentration of […] of compound to be tested are made available in high recovery vials at a concentration of 10 mM. From this, a 20 μM stock in Screening media is prepared ([…] of 10 mM compound+996 μl of screening media) to keep % DMSO at 0.4.
Starting from 20 μM stock solution, 100 μl is added in the assay plate already containing 100 μl of screening media and 1:2 fold serial 12 point dilutions are made in the plate (10 μM to 4.8 nM) (100 μl of compound is mixed with 100 μl of screening media already present in plates, and so on).
P. falciparum culture diluted to 0.3% p and 1.25% h—synchronous ring stage. The assay was carried out in sterile, in the 96-well plate.
100 μL of P. falciparum culture was added per well and were then incubated at 37° C. for 48 hours. Smears are then made to check for growth of culture control after 48 hours of incubation.
Once ensured that the culture has grown in % p, 50 μL of 3H-Hypoxanthine (0.5 μCi/well) is added in each well, and the assay plate is further incubated for 24 hours.
After 72 hours, the assay plates are harvested on GFB plates. In order to remove nonspecific binding, the plates are washed with 2.5 ml of cooled distilled water and GFB plates were kept for drying at 37° C. over night or 60° C. for 1 hour.
50 μL of Microscint®-20 was added to each well.
The plates are then read in Top Count (45 sec/well).
The assay data were analysed using Graph pad prism ver.5 software. […]

[2] = tested on: P. vivax clinical field isolates; assay: Ex vivo drug susceptibility assay (schizont maturation, flow cytometry) on P. vivax clinical field isolates; details: for Drug susceptibility difference between species: P. falciparum versus P. vivax clinical field isolates
Text: The biological activity of compound 1b according to the invention has been tested on the basis of an IC50 evaluation against the strain P. vivax.
Plasmodium isolates were collected from patients attending malaria clinics in Timika (Papua, Indonesia), a region endemic for multidrug-resistant strains of P. vivax and P. falciparum. Patients with symptomatic malaria presenting to an outpatient facility were recruited into the study if singly infected with P. falciparum or P. vivax, with a parasitaemia of between […], and the majority (>60%) of parasites at ring stage of development. Venous blood (5 mL) was collected by venepuncture and after removal of host white blood cells by using Plasmodipur filters (EuroProxima B.V., The Netherlands), packed infected red blood cells (iRBCs) were used for the ex vivo drug susceptibility assay.
Standard anti-malarial drugs chloroquine (CQ), piperaquine (PIP), mefloquine (MFQ), and artesunate (AS) (WWARN QA/QC Reference Material Program), and experimental compound 1b were prepared as 1 mg/mL stock solutions in H2O or dimethyl sulfoxide (DMSO) according to the manufacturers' instructions. Drug plates were pre-dosed by diluting the compounds in 50% Methanol followed by lyophilisation and stored at 4° C.
(§1) Drug susceptibility of P. vivax and P. falciparum isolates was measured using a protocol modified from the WHO microtest (see for instance in Marfurt J. et al., Antimicrob Agents Chemother. 2011 September; 55(9):4461).
(§2) Two hundred μL of a 2% haematocrit Blood Media Mixture (BMM), consisting of RPMI 1640 medium plus 10% AB+ human serum (P. falciparum) or McCoy's 5A medium plus 20% AB+ human serum (P. vivax) was added to each well of pre-dosed drug plates containing 11 serial concentrations (2-fold dilutions) of the anti-malarials (maximum concentration shown in brackets) CQ (2,993 nM), PIP (1,029 nM), MFQ (338 nM), AS (49 nM), and compound 1b (237 nM). A candle jar was used to mature the parasites at 37° C. for 35-56 hours. Incubation was stopped when >40% of ring stage parasites had reached the mature schizont stage in the drug-free control wells as determined by light microscopy.
Parasite growth was quantified by nucleic acid staining and data acquisition using flow cytometry as described in detail elsewhere6. Parasite growth was quantified for each drug concentration and normalised to the control well.
The dose-response data were analysed using nonlinear regression analysis and the half-maximal inhibition of growth (IC50) value derived using an inhibitory sigmoid Emax model (In Vitro Analysis and Reporting Tool; IVART7).
Drug plate quality was assured by running schizont maturation assays with the chloroquine-resistant strain K1 and the chloroquine-sensitive strain FC27.

[3] = tested on: P. falciparum clinical field isolates; assay: Ex vivo drug susceptibility assay (schizont maturation, flow cytometry) on P. falciparum clinical field isolates; details: Plasmodium falciparum, isolates from Timika (Papua, Indonesia), 35-56 hours
Procedure: Plasmodium isolates were collected from patients attending malaria clinics in Timika (Papua, Indonesia), a region endemic for multidrug-resistant strains of P. vivax and P. falciparum. Patients with symptomatic malaria presenting to an outpatient facility were recruited into the study if singly infected with P. falciparum or P. vivax, with a parasitaemia of between […], and the majority (>60%) of parasites at ring stage of development. […]
as §1
as §2, with “A candle jar was used to mature the parasites at 37° C. for 35-56 hours.” left out, “microscopy. […]” for “microscopy.”

[4] = Plasmodium falciparum, NF54, upper bound as printed, 72 hours, 3H-hypoxanthine incorporation, read-out: NF54 IC50
[5] = measured values printed under the bound, 72 hours, 3H-hypoxanthine incorporation, read-out: NF54 IC50 (nM), measured values

| SMILES | IC50 [1, 4] | Drug susceptibility difference between species [2] | also measured |
| --- | --- | --- | --- |
| N=C(N)NC(=O)c1cc(C#Cc2ccc(Cl)c(C(=O)Nc3ccccn3)c2)cc(C(F)(F)F)c1 [Compound 6, 5-((3-(carbamimidoylcarbamoyl)-5-(trifluoromethyl)phenyl)ethynyl)-2-chloro-N-(pyridin-2-yl)benzamide hydrochloride] | < 10 nM | – | – |
| Clc1ccc2c(N3CCN(CCCN4CCN(c5ccnc6cc(Cl)ccc56)CC4)CC3)ccnc2c1 [piperaquine] | – | did not differ significantly | – |
| N=C(N)NC(=O)c1cc(F)cc(C#Cc2ccc(C(F)(F)F)c(C(=O)Nc3ccccn3)c2)c1 [Compound 7, 5-((3-(carbamimidoylcarbamoyl)-5-fluorophenyl)ethynyl)-N-(pyridin-2-yl)-2-(trifluoromethyl)benzamide hydrochloride] | < 20 nM | – | – |
| Cl.N=C(N)NC(=O)c1cc(C#Cc2ccc(C(F)(F)F)c(C(=O)Nc3ccccn3)c2)cc(C(F)(F)F)c1 [Compound 1b, 5-((3-(carbamimidoylcarbamoyl)-5-(trifluoromethyl)phenyl)ethynyl)-N-(pyridin-2-yl)-2-(trifluoromethyl)benzamide hydrochloride] | – | did not differ significantly | IC50 ([2]; Plasmodium vivax, ex vivo, isolates from Timika (Papua, Indonesia), 35-56 hours): 12 nM; IC50 ([1]; upper bound, 72 hours, 3H-hypoxanthine incorporation, hydrochloride, read-out: NF54 IC50): < 15 nM; IC50 [3]: 18.9 nM |
| Cc1ccc(C#Cc2cc(C(=O)NC(=N)N)cc(C(F)(F)F)c2)cc1C(=O)Nc1ccccn1 [Compound 4, 5-((3-(carbamimidoylcarbamoyl)-5-trifluoromethyl)phenyl)ethynyl)-2-methyl-N-(pyridin-2-yl)benzamide hydrochloride] | < 10 nM | – | – |
| N=C(N)NC(=O)c1cc(C#Cc2ccc(C(F)(F)F)c(C(=O)Nc3ccccn3)c2)cc(C(F)(F)F)c1 [Compound 1a, 5-((3-(carbamimidoylcarbamoyl)-5-(trifluoromethyl)phenyl)ethynyl)-N-(pyridin-2-yl)-2-(trifluoromethyl)benzamide] | < 10 nM | – | IC50 [1, 5]: 7 nM |
| N=C(N)NC(=O)c1cc(C#Cc2ccc(C(F)(F)F)c(C(N)=O)c2)cc(C(F)(F)F)c1 [Compound 8] | < 100 nM | – | – |
| OC(c1cc(C(F)(F)F)nc2c(C(F)(F)F)cccc12)C1CCCCN1 (stereo not drawn) [mefloquine] | – | did not differ significantly | – |
| Cc1cccc(NC(=O)c2cc(C#Cc3cc(F)cc(C(=O)NC(=N)N)c3)ccc2C(F)(F)F)n1 [Compound 3, 5-((3-(carbamimidoylcarbamoyl)-5-fluorophenyl)ethynyl)-N-(6-methylpyridin-2-yl)-2-(trifluoromethyl)benzamide hydrochloride] | < 25 nM | – | – |
| C[C@H]1[C@H](OC(=O)CCC(=O)O)O[C@@H]2O[C@@]3(C)CC[C@H]4[C@H](C)CC[C@@H]1[C@@]24OO3 [artesunate] | – | did not differ significantly | – |
| Cc1cccc(NC(=O)c2cc(C#Cc3cc(C(=O)NC(=N)N)cc(C(F)(F)F)c3)ccc2C)n1 [Compound 2, 5-((3-((diaminomethylene)carbamoyl)-5-(trifluoromethyl)phenyl)ethynyl)-2-methyl-N-(6-methylpyridin-2-yl)benzamide hydrochloride] | – | – | IC50 ([1]; Plasmodium falciparum, NF54, read-out: NF54 IC50 (nM)): < 25 nM |
| N=C(N)NC(=O)c1cc(C#Cc2ccc(C(F)(F)F)c(C(=O)Nc3ccc(O)cn3)c2)cc(C(F)(F)F)c1 [Compound 5, 5-((3-(carbamimidoylcarbamoyl)-5-(trifluoromethyl)phenyl)ethynyl)-N-(5-hydroxypyridin-2-yl)-2-(trifluoromethyl)benzamide hydrochloride] | < 10 nM | – | – |
| N=C(N)NC(=O)c1cc(C#Cc2ccc(C(F)(F)F)c(C(=O)Nc3ccccn3)c2)cc(C(F)(F)F)c1 [Compound 1c, 5-((3-(carbamimidoylcarbamoyl)-5-(trifluoromethyl)phenyl)ethynyl)-N-(pyridin-2-yl)-2-(trifluoromethyl)benzamide malonic acid] | – | – | IC50 [1, 5]: 17 nM; IC50 ([1]; upper bound, 72 hours, 3H-hypoxanthine incorporation, read-out: NF54 IC50): < 20 nM |
